Literature values as cited in US9250230B2, “Using induced pluripotent stem cells for screening anti-neoplastic agents” (priority 2011, dated 2016).

How the values were obtained:
iPS reprogramming = iPS reprogramming of somatic cells
[1] = test system: chemical reprogramming to CiPSCs; details: TTNPB added to small-molecule reprogramming

For O=CC[C@@H](O)[C@H](O)[C@H](O)CO [2-DG, 2-deoxy-D-glucose], the “effect on reprogramming efficiency” value (iPS reprogramming) is listed as “inhibited the reprogramming efficiency”.
In the case of O=C(CO)[C@@H](O)[C@H](O)[C@H](O)COP(=O)(O)O [F6P, D-fructose-6-phosphate], the “effect on reprogramming efficiency” value (iPS reprogramming) is listed as “increased reprogramming efficiency”.
In the case of C/C(=C\c1ccc(C(=O)O)cc1)c1ccc2c(c1)C(C)(C)CCC2(C)C [TTNPB], the “enhancement of reprogramming efficiency of chemical reprogramming” value [1] is given as “up to 40 fold”.
